Data taken from patent US11242370B2, “Neuregulin-4 compounds and methods of use” (Eli Lilly and Company, priority 2019, dated 2022).
Residue numbers refer to the chain shown, from its start. Numbers in names are those of the source. Marks after values point to notes of the source that are not given here.

Experiments:
[1] = tested on: rat model of heart failure with reduced ejection fraction (HFrEF); assay: Rat MI model, captopril, Example 10 or combination, echocardiography; assay type: in vivo; parameters: Left Ventricle Diameter (end diastole): unit not given here
Description: A nonclinical efficacy pharmacology study is conducted in a rat model of heart failure with reduced ejection fraction (HFrEF) to evaluate cardiac function and structure changes after captopril treatment, Example 10 treatment or combination treatment.
The left coronary artery is permanently ligated. All rats are individually housed in a temperature and humidity controlled room and maintained on a 12 hour light/dark cycle. Two to three weeks after surgery, rats undergo transthoracic echocardiography for determination of ejection fraction (EF %) and left ventricle dimensions (LVD) using a Vevo 2100 ultrasound system. Rats are randomized across treatment groups according to EF % and LVD.
Measurements of EF % and LVD are expressed as mean values±standard error (SE). Statistical analysis is performed with JMP® 13 software (SAS Institute, Inc.; Cary, N.C.) and Dunnett's Test is used for statistical comparisons across treatment groups. Statistical significance is accepted at P<0.05.
Three weeks after MI surgery, animals are randomized to 2 treatment groups (Placebo or captopril, 2 g/L in drinking water, ad lib) according to EF % and LVD. Three weeks and four weeks after dosing starts, cardiac function (EF %) and structure (LVD) are evaluated by transthoracic echocardiography. Animals are further randomized to additional groups based on cardiac function (EF %) and structure (LVD) to the following groups: Placebo, Example 10, captopril and Example 10+captopril. Animals in the Example 10 groups receive a single injection on week 4 after the 2nd randomization. Cardiac function (EF %) and structure (LVD) are evaluated on week 5 and 6.

human HER2 and HER4 = molecular target: T1, human HER2 and HER4 (Homo sapiens, UniProt Q15303); assay: Screening by human HER2-HER4 mediated ERK 1/2 phosphorylation in CHO-hHER2-hHER4 (clone 1H6) cells; assay type: cell-based; conditions: Fc variants as 293F supernatants
T1 construct: expressed in transfected cells
Description: A cell based assay utilizing CHO-K1 cells overexpressing human or rat HER receptors is used to determine activity of NRG4 compounds. CHO-K1 cells (ATCC) are grown in DMEM-F12 3:1 with 5% FBS with 20 mM HEPES, 40 μg/mL L-Proline, lx antibiotics and were split 1:5 every 2-3 days with TripLE Express (Gibco). Cells are transfected with plasmid DNA encoding HER receptors in pairs (hHER2-3, hHER2-4, rHER2-3 and rHER2-4) with Fugene 6 (Promega) according to the manufacturer's instructions. […] Transfected cells are selected with Puromycin (12 ug/ml) and Hygromycin (1 mg/ml) for 3-4 weeks and clonal lines are obtained by limited dilution cloning into 96 well plates. Clonal lines are selected by appropriate gene expression of HER2, HER3 or HER4 by Taqman method. Lines with appropriate receptor expression are confirmed by NRG1 induced phospho-ERK 1/2 responses. Clones are grown up, harvested, aliquoted into cryovials and then frozen under liquid nitrogen for long-term storage.
A phospho-ERK1/2 activity assay is used to determine potencies of NRG4 compounds. The potency of Examples 1-8 and 10 as compared to WT human NRG1 and/or human NRG4 are analyzed in studies measuring stimulation of human HER2-HER4 mediated ERK 1/2 phosphorylation. This assay comprises a CHO-K1 stable line expressing human HER2 and HER4. CHO-hHER2-hHER4 (clone 1H6) cells are routinely cultured in DMEM: F12(3:1), 5% FBS, 40 μg/mL L-Proline, 10 μg/mL puromycin and 1 mg/mL hygromycin at 37° C., 5% CO2. Cells are washed twice with 1×PBS, dissociated with 0.05% trypsin/[…] EDTA and collected by centrifugation at 300×g for 10 m. Cells are re-suspended in maintenance media. 20,000 cells/well, in 30 μL, are seeded into 384 well Poly-D-Lysine cell culture plates (Greiner, Cat No. 781946). Plates are covered with a manufacturer's lid and moved to a 37° C. tissue culture incubator at 5% CO^2, 80%+ humidity and allowed to adhere. After 24 h, media are removed from the plates and replaced with 30 μL serum-free starvation media (Low glucose DMEM with 0.1% BSA) using a Biomek FX liquid handler. Plates are returned to the incubator for 24 h.
hFcNRG4 variants, transiently expressed as 293F supernatants, are prepared in starvation media in a clear 384W plate (Greiner, cat no. 781185) as a 4pt 1:8 serial dilution (dose range averaged between 250 pM to 140000 pM). Media are removed from the cell culture plates and the 30 uL/well prepared variants are stamped into the plates using a Biomek FX liquid handler. Plates are sealed with a foil seal and stimulated for 15 minutes at room temperature on an orbital shaker. Cells are then washed once with 50 uL cold PBS. 30 uL lysis buffer is added to the cells and oscillated for 10 m at RT on an orbital shaker.
Detection of phosphorylation of ERR 1/2 is performed with either an AlphaScreen SureFire phospho-ERK1/2 kit (T202/Y204) (Perkin Elmer, catalog no. TGRES) or an AlphaLISA® SureFire® Ultra™ p ERK1/2 assay kit together with the AlphaScreen Protein. A IgG Detection Kit (Protein-A) (PerkinElmer, catalogue no. 6760617). After lysis of the CHO-K1 cells. 4 μL lysate is transferred to a 384W Alpha Proxiplate (Perkin Elmer, cat no, 6008280) with a 384W Biomek FX. 4 uL positive and negative lysates (Perkin Elmer, TGRES-L) are added to available wells as controls. 5 uL/well acceptor mix (containing anti-phoso-Thr202/Tyr204 antibodies and Protein A conjugated acceptor beads) is added to the plate with a Forumlatrix Mantis. The plate is sealed, spun down for 1 min at 300×g and incubated for 2 hr at room temperature on an orbital shaker. 2 μL/well donor mix (containing strepavidin coated donor beads and biotinylated antibodies to a distal ERK1/2 epitope) is dispensed by Mantis. The plate is sealed, spun down for 1 min at 300×g and incubated for 2 hr at room temperature on an orbital shaker before reading on the Perkin Elmer Envision 2103 Multilabel Reader (HIS Alpha mode, excitation time: 40 ms, total measurement time: 130 ms). […]

[2] = Baseline (before captopril 2 g/L in drinking water)
[3] = Week 3 of captopril 2 g/L in drinking water
[4] = Week 4 (2nd randomization; before the single injection of Example 10)
[5] = Week 5 (single injection of Example 10 on week 4; captopril 2 g/L in drinking water)
[6] = Week 6 (single injection of Example 10 on week 4; captopril 2 g/L in drinking water)
[7] = Table 5, Examples average of two replicates ± standard deviation

C[C@H](CS)C(=O)N1CCC[C@H]1C(=O)O [Captopril, captopril]
Ejection Fraction [1, 2]: 39.1% | Left Ventricle Diameter (end diastole) [1, 2]: 8.66 | Ejection Fraction [1, 3]: 38.4% | Left Ventricle Diameter (end diastole) [1, 3]: 8.57 | Ejection Fraction [1, 4]: 36.1% | Left Ventricle Diameter (end diastole) [1, 4]: 8.64 | Ejection Fraction [1, 5]: 36.2% | Left Ventricle Diameter (end diastole) [1, 5]: 8.64* | Ejection Fraction [1, 6]: 34.6% | Left Ventricle Diameter (end diastole) [1, 6]: 8.71*

B1: Example 3: NRG4 D1G/V22Q, (GGGGS)3 linker, SEQ ID NO: 12, fused to IgG Fc dimer SEQ ID NO: 6 and 7 (protein)
chain 1: GGGGSGGGGSGGGGSGHEEPCGPSHKSFCLNGGLCYQIPTIPSPFCRCVENYTGARCEEVFL
chain 2: ECPPCPAPPVAGPSVFLFPPKPKDTLMISRTPEVTCVVVDVSHEDPEVQFNWYVDGVEVHNAKTKPREEQFNSTFRVVSVLTVVHQDWLNGKEYKCKVSNKGLPAPIEKTISKTKGQPREPQVYTLPPSREEMTKNQVSLWCLVKGFYPSDIAVEWESNGQPENNYKTTPPVLDSDGSFFLYSKLTVDKSRWQQGNVFSCSVMHEALHNHYTQKSLSLSPG
chain 3: B1 chain 2 with W141S, L143A, Y182V
EC50 (human HER2 and HER4; [7]): 0.29 ± 0.01 nM

B2: Example 4: NRG4 D1G/I26F, (GGGGS)3 linker, SEQ ID NO: 13, fused to IgG Fc dimer SEQ ID NO: 6 and 7 (protein)
chain 1: B1 chain 1 with Q37V, I41F
chain 2: B1 chain 2
chain 3: B1 chain 2 with W141S, L143A, Y182V
EC50 (human HER2 and HER4; [7]): 0.53 ± 0.05 nM

B3: Example 5: NRG4 D1G/E35A, (GGGGS)3 linker, SEQ ID NO: 14, fused to IgG Fc dimer SEQ ID NO: 6 and 7 (protein)
chain 1: B1 chain 1 with Q37V, E50A
chain 2: B1 chain 2
chain 3: B1 chain 2 with W141S, L143A, Y182V
EC50 (human HER2 and HER4; [7]): 0.84 ± 0.27 nM

B4: Example 2: NRG4 D1G/P8E, (GGGGS)3 linker, SEQ ID NO: 11, fused to IgG Fc dimer SEQ ID NO: 6 and 7 (protein)
chain 1: B1 chain 1 with P23E, Q37V
chain 2: B1 chain 2
chain 3: B1 chain 2 with W141S, L143A, Y182V
EC50 (human HER2 and HER4; [7]): 2.77 ± 0.39 nM

B5: Example 8: NRG4 D1G/I26F/P8E, (GGGGS)3 linker, SEQ ID NO: 17, fused to IgG Fc dimer SEQ ID NO: 6 and 7 (protein)
chain 1: B1 chain 1 with P23E, Q37V, I41F
chain 2: B1 chain 2
chain 3: B1 chain 2 with W141S, L143A, Y182V
EC50 (human HER2 and HER4; Table 6): 0.403 nM

B6: Example 6: NRG4 D1G/I26F/E44K, (GGGGS)3 linker, SEQ ID NO: 15, fused to IgG Fc dimer SEQ ID NO: 6 and 7 (protein)
chain 1: B1 chain 1 with Q37V, I41F, E59K
chain 2: B1 chain 2
chain 3: B1 chain 2 with W141S, L143A, Y182V
EC50 (human HER2 and HER4; Table 6): 0.395 nM

B7: Example 7: NRG4 D1G/I26F/E44H, (GGGGS)3 linker, SEQ ID NO: 16, fused to IgG Fc dimer SEQ ID NO: 6 and 7 (protein)
chain 1: B1 chain 1 with Q37V, I41F, E59H
chain 2: B1 chain 2
chain 3: B1 chain 2 with W141S, L143A, Y182V
EC50 (human HER2 and HER4; Table 6): 0.563 nM
